Laboratory results reported in patent US7741023B2, “Method for predicting immune response to neoplastic disease based on mRNA expression profile in neoplastic cells and stimulated leukocytes” (Hitachi Chemical Co., Ltd., priority 2005, dated 2010).

Tested on: TNF superfamily subtype 3 mRNA
Experiment: effect of dietary components on HAG-induced TNF superfamily subtype 3 mRNA in whole blood
Format: cell-based, human
Details: 100 nM, pre-incubation 37° C. 1 hour, then HAG; one individual, FIG. 10
Experimental: Triplicate aliquots of 50 μL each of heparinized whole blood was incubated with 200 μg/mL HAG at 37° C. for 2 hours. Then blood samples were applied to 96-well filterplates to trap leukocytes, and cell lysates were transferred to 96-well oligo(dT)-immobilized microplates for isolation of poly(A)^+ mRNA as described above. cDNA was synthesized on the microplates and was used for real-time polymerase chain reaction (PCR) in 384-well plates by monitoring SYBR Green fluorescence (see Morrison et al., Quantification of low-copy transcripts by continuous SYBR Green I monitoring during amplification. Biotechniques 1998; 24:954-8, 960, 96). […] The Ct was determined by analytical software (SDS, ABI). The PCR conditions were carefully optimized, so that a single appropriate peak was detected on melting curve analysis without any primer dimers. To validate the assay conditions, synthetic RNA34 was spiked into the lysis buffer, and this RNA34 was also quantitated by real time PCR. […] The Ct was set equal to the PCR cycle where certain amounts of PCR products were generated, and delta Ct (ΔCt) was also calculated by subtracting the Ct values of the un-stimulated samples from those of the stimulated samples. Since Ct is a log scale, 1 ΔCt means double or one half in quantity, and a negative ΔCt indicates an increase in expression. […]

Structure (SMILES): O=c1c(O)c(-c2ccc(O)c(O)c2)oc2cc(O)cc(O)c12 [quercetin]
- HAG-induced TNF superfamily subtype 3 expression in blood pre-exposed to dietary component: significant (p=0.03) induction
